Laboratory results published in the NIST ThermoML archive (doi:10.1021/je800110r).

Conditions: 283.15 K, Liquid, Vibrating tube method

CCCCCCCCCC [decane]
Conditions	mass density [kg/m3]
7092 kPa	742.4
7106 kPa	742.5
7121 kPa	742.6
7134 kPa	742.5
7192 kPa	742.7
7205 kPa	742.5
7258 kPa	742.6
7275 kPa	742.6
7296 kPa	742.6
7315 kPa	742.8
7327 kPa	742.7
7342 kPa	742.7
7357 kPa	742.7
7374 kPa	742.7
7387 kPa	742.8
7404 kPa	742.6
7420 kPa	742.9
7435 kPa	742.8
7452 kPa	742.7
7466 kPa	742.7
7484 kPa	742.8
7505 kPa	742.8
7518 kPa	742.8
7534 kPa	742.8
7548 kPa	742.7
7567 kPa	742.9
7581 kPa	742.8
7595 kPa	742.8
7611 kPa	742.9
7628 kPa	742.9
7643 kPa	742.9
7658 kPa	742.9
7697 kPa	743.1
7710 kPa	743
7722 kPa	743
7735 kPa	743
7783 kPa	743
7795 kPa	743
7814 kPa	743.1
7830 kPa	742.9
7845 kPa	743.1
7855 kPa	743
7867 kPa	743.1
7879 kPa	743.1
7891 kPa	743.1
7903 kPa	743.1
7915 kPa	743
7926 kPa	743.1
7942 kPa	743.2
7957 kPa	743.2
7975 kPa	743.1
7991 kPa	743
8004 kPa	743.1
8018 kPa	743.1
8033 kPa	743.2
8045 kPa	743.2
8060 kPa	743.2
8078 kPa	743.1
8091 kPa	743.2
8112 kPa	743.4
8127 kPa	743.2
8143 kPa	743.3
8159 kPa	743.2
8171 kPa	743.4
8318 kPa	743.4
8332 kPa	743.4
8347 kPa	743.4
8361 kPa	743.3
8376 kPa	743.4
8392 kPa	743.5
8412 kPa	743.4
8430 kPa	743.4
8446 kPa	743.4
8462 kPa	743.4
8478 kPa	743.5
8497 kPa	743.6
8513 kPa	743.5
8529 kPa	743.6
8546 kPa	743.5
8563 kPa	743.6
8580 kPa	743.5
8596 kPa	743.5
8612 kPa	743.6
8631 kPa	743.7
8648 kPa	743.7
8660 kPa	743.6
8677 kPa	743.6
8695 kPa	743.6
8706 kPa	743.7
8720 kPa	743.7
8735 kPa	743.8
8747 kPa	743.7
8762 kPa	743.7
8774 kPa	743.8
8790 kPa	743.7
8804 kPa	743.7
8818 kPa	743.6
8832 kPa	743.9
8862 kPa	743.6
8890 kPa	743.7
9095 kPa	743.9
9109 kPa	743.9
9124 kPa	744
9134 kPa	743.9
9147 kPa	743.8
9162 kPa	744
9174 kPa	744
9189 kPa	743.9
9203 kPa	744.1
9220 kPa	744
9233 kPa	744.1
9250 kPa	744.1
9261 kPa	744
9274 kPa	744.1
9287 kPa	744
9304 kPa	744
9315 kPa	744
9326 kPa	744.1
9337 kPa	744.2
9354 kPa	744.1
9373 kPa	744.2
9384 kPa	744.1
9396 kPa	744.1
9406 kPa	744.2
9419 kPa	744.2
9429 kPa	744.2
9442 kPa	744
9452 kPa	744.2
9464 kPa	744.2
9476 kPa	744.2
9488 kPa	744.1
9499 kPa	744.1
9517 kPa	744.3
9532 kPa	744.2
9543 kPa	744.3
9556 kPa	744.2
9564 kPa	744.3
9577 kPa	744.1
9588 kPa	744.2
9597 kPa	744.3
9605 kPa	744.2
9614 kPa	744.3
9623 kPa	744.3
9633 kPa	744.3
9642 kPa	744.3
9651 kPa	744.3
9663 kPa	744.4
9675 kPa	744.4
9685 kPa	744.4
9695 kPa	744.3
9704 kPa	744.3
9726 kPa	744.3
9736 kPa	744.5
9746 kPa	744.3
9758 kPa	744.3
9766 kPa	744.3
9777 kPa	744.4
9784 kPa	744.2
9795 kPa	744.3
9803 kPa	744.3
9814 kPa	744.5
9822 kPa	744.5
9835 kPa	744.4
9845 kPa	744.4
9855 kPa	744.5
9870 kPa	744.4
9880 kPa	744.4
9892 kPa	744.5
9905 kPa	744.5
9914 kPa	744.5
9923 kPa	744.5
9931 kPa	744.5
9940 kPa	744.5
9949 kPa	744.5
9961 kPa	744.5
9973 kPa	744.5
9982 kPa	744.6
9992 kPa	744.5
10001 kPa	744.6
10013 kPa	744.5
10022 kPa	744.5
10032 kPa	744.6
10042 kPa	744.5
10056 kPa	744.6
10066 kPa	744.7
10076 kPa	744.6
10086 kPa	744.5
10097 kPa	744.5
10108 kPa	744.5
10119 kPa	744.6
10131 kPa	744.6
10144 kPa	744.6
10160 kPa	744.6
10170 kPa	744.6
10185 kPa	744.6
10195 kPa	744.6
10205 kPa	744.6
10215 kPa	744.7
10224 kPa	744.7
10234 kPa	744.6
10242 kPa	744.7
10252 kPa	744.7
10263 kPa	744.8
10274 kPa	744.8
10285 kPa	744.6
10295 kPa	744.7
10305 kPa	744.7
10317 kPa	744.7
10331 kPa	744.7
10342 kPa	744.8
10353 kPa	744.7
10374 kPa	744.8
10384 kPa	744.8
10397 kPa	744.8
10407 kPa	744.8
10445 kPa	744.8
10457 kPa	745
10500 kPa	744.9
10514 kPa	744.9
10540 kPa	744.9
10683 kPa	745
10698 kPa	745.1
10709 kPa	745
10720 kPa	745.1
10735 kPa	745.1
10744 kPa	745
10761 kPa	745
10780 kPa	745
10791 kPa	745.2
10802 kPa	745.1
10816 kPa	745.1
10830 kPa	745
10841 kPa	745.1
10852 kPa	745.2
10867 kPa	745.1
10880 kPa	745.2
10894 kPa	745.2
10907 kPa	745.1
10924 kPa	745.1
10938 kPa	745.2
10953 kPa	745.3
10965 kPa	745.2
10983 kPa	745.2
11010 kPa	745.1
11026 kPa	745.2
11036 kPa	745.2
11049 kPa	745.3
11068 kPa	745.2
11079 kPa	745.3
11097 kPa	745.2
11109 kPa	745.3
11124 kPa	745.3
11134 kPa	745.3
11149 kPa	745.3
11159 kPa	745.2
11173 kPa	745.3
11183 kPa	745.5
11197 kPa	745.3
11207 kPa	745.3
11227 kPa	745.3
11242 kPa	745.4
11258 kPa	745.5
11268 kPa	745.4
11284 kPa	745.4
11299 kPa	745.5
11309 kPa	745.4
11322 kPa	745.4
11339 kPa	745.5
11351 kPa	745.5
11366 kPa	745.5
11378 kPa	745.4
11399 kPa	745.5
11416 kPa	745.6
